The source of these data is US5004747A, “Isoquinolinones” (May & Baker Limited, priority 1988, dated 1991).

The assay addresses T1, rat hepatic microsomal HMG CoA reductase (Rattus norvegicus, UniProt P51639).
T1 construct: rat hepatic microsomal HMG CoA reductase; from tissue; host or cells: rat liver microsomes
T1 sequence (P51639 1-887): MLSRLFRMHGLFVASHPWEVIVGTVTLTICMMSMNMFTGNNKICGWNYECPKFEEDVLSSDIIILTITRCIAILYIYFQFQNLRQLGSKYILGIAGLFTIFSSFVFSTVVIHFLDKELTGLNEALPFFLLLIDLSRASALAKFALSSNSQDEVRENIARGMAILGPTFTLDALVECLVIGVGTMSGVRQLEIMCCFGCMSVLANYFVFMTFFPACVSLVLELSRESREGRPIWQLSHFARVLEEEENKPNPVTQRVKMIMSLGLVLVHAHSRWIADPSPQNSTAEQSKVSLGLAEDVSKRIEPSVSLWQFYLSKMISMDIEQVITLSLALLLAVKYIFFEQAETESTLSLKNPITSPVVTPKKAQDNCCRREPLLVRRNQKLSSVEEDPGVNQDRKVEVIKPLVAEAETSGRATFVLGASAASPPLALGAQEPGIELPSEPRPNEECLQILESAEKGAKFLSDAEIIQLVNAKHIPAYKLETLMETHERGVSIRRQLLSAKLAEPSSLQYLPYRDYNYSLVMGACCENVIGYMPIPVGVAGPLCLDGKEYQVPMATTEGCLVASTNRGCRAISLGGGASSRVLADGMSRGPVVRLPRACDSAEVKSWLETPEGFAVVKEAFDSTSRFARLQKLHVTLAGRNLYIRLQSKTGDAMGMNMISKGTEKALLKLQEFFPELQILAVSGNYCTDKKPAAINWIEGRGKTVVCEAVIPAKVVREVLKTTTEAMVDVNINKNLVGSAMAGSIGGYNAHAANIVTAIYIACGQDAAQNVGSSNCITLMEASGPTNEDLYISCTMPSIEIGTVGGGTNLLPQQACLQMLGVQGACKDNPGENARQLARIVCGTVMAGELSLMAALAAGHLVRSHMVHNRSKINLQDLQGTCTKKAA
The assay can be described thus: inhibition of rat hepatic microsomal HMG CoA reductase activity in vitro (Table I). It is filed as biochemical. Particulars: for inhibition at 0.24 µg/mL: 0.24 micrograms/ml; for inhibition at 0.74 µg/mL: 0.74 micrograms/ml; for inhibition at 2.22 µg/mL: 2.22 micrograms/ml; for inhibition at 6.66 µg/mL: 6.66 micrograms/ml; for inhibition at 20 µg/mL: 20.0 micrograms/ml; for inhibition at 0.0274 µg/mL: 0.0274 micrograms/ml; for inhibition at 0.082 µg/mL: 0.082 micrograms/ml; for inhibition at 0.25 µg/mL: 0.25 micrograms/ml. The source says: In the table the concentrations of the test compounds are expressed in micrograms/ml.

`CCOC(=O)CC(O)CC(O)/C=C/c1c(-c2ccc(F)cc2)c2ccccc2c(=O)n1C(C)C` (stereo not shown) [Compound D, ethyl (E)-3,5-dihydroxy-7-[4-(4-fluorophenyl)-2-isopropyl-1-oxo-1,2-dihydroisoquinolin-3-yl]hept-6-enoate] registered an inhibition at 0.24 µg/mL of 11%, an inhibition at 0.74 µg/mL of 35%, an inhibition at 2.22 µg/mL of 62% and an inhibition at 6.66 µg/mL of 85%. Also, the inhibition at 20 µg/mL amounted to 94%.
In the case of `CC(C)c1c(/C=C/[C@@H]2C[C@@H](O)CC(=O)O2)n(-c2ccc(F)cc2)c(=O)c2ccccc12` [Compound I, (4R,6S)-(E)-4-hydroxy-6-[2-{2-(4-fluorophenyl)-4-isopropyl-1-oxo-1,2-dihydroisoquinolin-3-yl}ethen-1-yl]-3,4,5,6-tetrahydro-2H-pyran-2-one], the inhibition at 0.0274 µg/mL stood at 25%, at 0.082 µg/mL the inhibition was 48%, the inhibition at 0.25 µg/mL came out at 72% and the inhibition at 0.74 µg/mL amounted to 88%. Further, at 2.22 µg/mL the inhibition was 96%.
Take `CC(C)n1c(/C=C/C(O)CC(O)CC(=O)O)c(-c2ccc(F)cc2)c2ccccc2c1=O` (stereo not shown) [Compound E, (E)-3,5-dihydroxy-7-[4-(4-fluorophenyl)-2-isopropyl-1-oxo-1,2-dihydroisoquinolin-3-yl]hept-6-enoic acid]: at 0.24 µg/mL the inhibition was 15%, the inhibition at 0.74 µg/mL was determined as 28%, testing at 2.22 µg/mL gave an inhibition of 61% and the inhibition at 6.66 µg/mL was 82%. Also, the inhibition at 20 µg/mL was determined as 94%.
Compound `CC(C)c1c(/C=C/[C@@H]2C[C@@H](O)CC(=O)O2)n(-c2ccc(Cl)cc2)c(=O)c2ccccc12` [R, (4R,6S)-(E)-6-(2-(2-(4-chlorophenyl)-4-isopropyl-1-oxo-1,2-dihydroisoquinolin-3-yl)ethen-1-yl)-4-hydroxy-3,4,5,6-tetrahydro-2H-pyran-2-one] registered an inhibition at 0.082 µg/mL of 21%, an inhibition at 0.25 µg/mL of 35%, an inhibition at 0.74 µg/mL of 56% and an inhibition at 2.22 µg/mL of 78%. The same compound came in with an inhibition at 6.66 µg/mL of 91% and an inhibition at 20 µg/mL of 97%.
The compound `CC(C)n1c(/C=C/C(O)CC(O)CC(=O)O)c(-c2ccc(F)cc2)c2ccccc2c1=O` (stereo not shown) [Compound F, sodium (E)-3,5-dihydroxy-7-[4-(4-fluorophenyl)-2-isopropyl-1-oxo-1,2-dihydroisoquinolin-3-yl]hept-6-enoate] had an inhibition at 0.24 µg/mL of 37%, an inhibition at 0.74 µg/mL of 59%, an inhibition at 2.22 µg/mL of 80% and an inhibition at 6.66 µg/mL of 91%. This compound also had an inhibition at 20 µg/mL of 97%.
In turn, `CC(C)c1c(/C=C/[C@@H]2C[C@@H](O)CC(=O)O2)n(CC2CCCCC2)c(=O)c2ccccc12` [AB, (4R,6S)-(E)-6-(2-(2-cyclohexylmethyl-4-isopropyl-1-oxo-1,2-dihydroisoquinolin-3-yl)ethen-1-yl)-4-hydroxy-3,4,5,6-tetrahydro-2H-pyran-2-one] showed an inhibition at 0.74 µg/mL of 20%, an inhibition at 2.22 µg/mL of 41% and an inhibition at 6.66 µg/mL of 66%.
In the case of `CC(C)c1c(CC[C@@H]2C[C@@H](O)CC(=O)O2)n(-c2ccc(F)cc2)c(=O)c2ccccc12` [AH, (4R,6R)-6-[2-{2-(4-fluorophenyl)-4-isopropyl-1-oxo-1,2-dihydroisoquinolin-3-yl}ethyl]-4-hydroxy-3,4,5,6-tetrahydro-2H-pyran-2-one], testing at 0.082 µg/mL gave an inhibition of 33%, the inhibition at 0.25 µg/mL was 31%, the inhibition at 0.74 µg/mL is 47% and the inhibition at 2.22 µg/mL is 61%. The same compound showed an inhibition at 6.66 µg/mL of 79% and an inhibition at 20 µg/mL of 91%.
As for `Cc1c(/C=C/[C@@H]2C[C@@H](O)CC(=O)O2)n(-c2ccc(F)cc2)c(=O)c2ccccc12` [V, (4R,6S)-(E)-6-(2-(2-(4-fluorophenyl)-4-methyl-1-oxo-1,2-dihydroisoquinolin-3-yl)ethen-1-yl)-4-hydroxy-3,4,5,6-tetrahydro-2H-pyran-2-one], at 0.74 µg/mL the inhibition was 10%, the inhibition at 2.22 µg/mL turned out to be 40%, at 6.66 µg/mL the inhibition was 67% and at 20 µg/mL the inhibition was 85%.
In the case of `CC(C)n1c(/C=C/[C@@H]2C[C@@H](O)CC(=O)O2)c(-c2ccc(F)cc2)c2ccccc2c1=O` [H, (4R,6S)-(E)-4-hydroxy-6-[2-{4-(4-fluorophenyl)-2-isopropyl-1-oxo-1,2-dihydroisoquinolin-3-yl}-ethen-1-yl]-3,4,5,6-tetrahydro-2H-pyran-2-one], the inhibition at 0.082 µg/mL came out at 49%, the inhibition at 0.25 µg/mL turned out to be 66%, the inhibition at 0.74 µg/mL was determined as 85% and the inhibition at 2.22 µg/mL turned out to be 95%. Besides, the inhibition at 6.66 µg/mL stood at 99% and the inhibition at 20 µg/mL was determined as 100%.
The compound `CC(C)c1c(/C=C/[C@@H]2C[C@@H](O)CC(O)O2)n(-c2ccc(F)cc2)c(=O)c2ccccc12` (mixture of isomers) [Compound M, (2RS,4R,6S)-(E)-2,4-dihydroxy-6-[2-(2-(4-fluorophenyl)-4-isopropyl-1-oxo-1,2-dihydroisoquinolin-3-yl)ethen-1-yl]-3,4,5,6-tetrahydro-2H-pyran] registered an inhibition at 0.082 µg/mL of 27%, an inhibition at 0.25 µg/mL of 18%, an inhibition at 0.74 µg/mL of 31% and an inhibition at 2.22 µg/mL of 44%. Moreover, the inhibition at 6.66 µg/mL came to 56% and the inhibition at 20 µg/mL was found to be 72%.
Compound `COC(=O)C[C@H](O)C[C@H](O)/C=C/c1c(-c2ccc(F)cc2)c2ccccc2c(=O)n1C(C)C` [Compound J, methyl (3R,5S)-(E)-3,5-dihydroxy-7-[4-(4-fluorophenyl)-2-isopropyl-1-oxo-1,2-dihydroisoquinolin-3-yl]hept-6-enoate] returned an inhibition at 0.0274 µg/mL of 13%, an inhibition at 0.082 µg/mL of 28%, an inhibition at 0.25 µg/mL of 55% and an inhibition at 0.74 µg/mL of 79%. The inhibition at 2.22 µg/mL stood at 92%.
`CC(C)n1c(CC[C@@H]2C[C@@H](O)CC(=O)O2)c(-c2ccc(F)cc2)c2ccccc2c1=O` [AI, (4R,6R)-6-(2-(4-(4-fluorophenyl)-2-isopropyl-1-oxo-1,2-dihydroisoquinolin-3-yl)ethyl)-4-hydroxy-3,4,5,6-tetrahydro-2H-pyran-2-one] returned an inhibition at 0.082 µg/mL of 16%, an inhibition at 0.25 µg/mL of 38%, an inhibition at 0.74 µg/mL of 62% and an inhibition at 2.22 µg/mL of 81%. The inhibition at 6.66 µg/mL came out at 92%.
In turn, `Cc1cc(-n2c(/C=C/[C@@H]3C[C@@H](O)CC(=O)O3)c(C(C)C)c3ccccc3c2=O)ccc1F` [P, (4R,6S)-(E)-6-(2-(2-(4-fluoro-3-methylphenyl)-4-isopropyl-1-oxo-1,2-dihydroisoquinolin-3-yl)ethen-1-yl)-4-hydroxy-3,4,5,6-tetrahydro-2H-pyran-2-one] yielded an inhibition at 0.082 µg/mL of 27%, an inhibition at 0.25 µg/mL of 39%, an inhibition at 0.74 µg/mL of 63% and an inhibition at 2.22 µg/mL of 81%. Further, 6.66 µg/mL produced 90% inhibition and the inhibition at 20 µg/mL worked out at 90%.
`O=C1C[C@H](O)C[C@@H](/C=C/c2c(-c3ccc(F)cc3)c3ccccc3c(=O)n2CC2CC2)O1` [X, (4R,6S)-(E)-6-(2-(2-cyclopropylmethyl-4-(4-fluorophenyl)-1-oxo-1,2-dihydroisoquinolin-3-yl)ethen-1-yl)-4-hydroxy-3,4,5,6-tetrahydro-2H-pyran-2-one] showed an inhibition at 0.082 µg/mL of 16%, an inhibition at 0.25 µg/mL of 35%, an inhibition at 0.74 µg/mL of 61% and an inhibition at 2.22 µg/mL of 83%. The compound also gave an inhibition at 6.66 µg/mL of 92% and an inhibition at 20 µg/mL of 96%.
With `CC(C)n1c(/C=C/[C@@H](O)C[C@@H](O)CC(=O)O)c(-c2ccc(F)cc2)c2ccccc2c1=O` [AF, sodium (3R,5S)-(E)-3,5-dihydroxy-7-(4-(4-fluorophenyl)-2-isopropyl-1-oxo-1,2-dihydroisoquinolin-3-yl)hept-6-enoate], the inhibition at 0.0274 µg/mL is 15%, 0.082 µg/mL produced 38% inhibition, 0.25 µg/mL produced 65% inhibition and 0.74 µg/mL produced 83% inhibition. This compound also yielded an inhibition at 2.22 µg/mL of 93% and an inhibition at 6.66 µg/mL of 95%.

By inhibition is commonly meant how much of the control response was suppressed. Higher therefore signals a response far below the control.
